Source: PMC11956012, “Optimization of Cyclophilin B-Targeted Tri-vector Inhibitors for Novel MASH Treatments” (Journal of Medicinal Chemistry, 2025)
Values after ≈ are worked out from the molar mass of the structure shown. Where two headings read alike, the source gives them in different places.

Assays:
iPSC-derived hepatocytes = assay: In vitro hepatic steatosis (MASH) assay; format: cell-based; details: 48 h treatment
[1] = Intrinsic clearance, rat liver microsomes; format: in vitro ADME; details: for microsomal CLint: Table 3, read-out: Rat Liver microsomes CL
[2] = Intrinsic clearance, human liver microsomes; format: in vitro ADME; details: for microsomal CLint: Table 3, read-out: Human Liver microsomes CL
[3] = Intrinsic clearance, rat hepatocytes; format: in vitro ADME; details: for hepatocyte CLint: Table 3, read-out: Rat Hepatocytes CL
[4] = Intrinsic clearance, human hepatocytes; format: in vitro ADME; details: for hepatocyte CLint: Table 3, read-out: Human Hepatocytes CL
[5] = Rat plasma protein binding; format: in vitro ADME
Source text: (§1) These experiments were subcontracted to Eurofins. […]

[6] = Human plasma protein binding; format: in vitro ADME
Source text: as §1

CYP1A = assay: Cytochrome P450 inhibition CYP1A; format: in vitro ADME; details: human, probe phenacetin; single point at 10 μM; substrate phenacetin
CYP2B6 = target: T1, CYP2B6 (Homo sapiens, UniProt P20813); assay: Cytochrome P450 inhibition CYP2B6; format: in vitro ADME; details: single point at 10 μM; substrate bupropion
T1 construct: Eurofins (subcontracted)
T1 sequence (P20813 1-491): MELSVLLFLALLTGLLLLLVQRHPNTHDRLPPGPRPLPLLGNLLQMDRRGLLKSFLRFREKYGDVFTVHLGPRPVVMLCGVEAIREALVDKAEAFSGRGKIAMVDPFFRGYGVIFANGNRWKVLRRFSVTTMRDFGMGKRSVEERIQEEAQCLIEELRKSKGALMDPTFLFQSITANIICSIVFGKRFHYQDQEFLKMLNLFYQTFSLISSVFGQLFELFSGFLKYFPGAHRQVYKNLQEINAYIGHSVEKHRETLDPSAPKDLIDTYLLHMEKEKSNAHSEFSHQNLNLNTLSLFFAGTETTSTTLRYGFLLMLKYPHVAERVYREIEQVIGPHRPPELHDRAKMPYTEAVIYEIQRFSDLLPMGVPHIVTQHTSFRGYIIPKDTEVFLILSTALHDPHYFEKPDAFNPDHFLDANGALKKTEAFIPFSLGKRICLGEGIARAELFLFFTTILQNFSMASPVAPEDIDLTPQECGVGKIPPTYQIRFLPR

CYP2C8 = target: T2, CYP2C8 (Homo sapiens, UniProt P10632); assay: Cytochrome P450 inhibition CYP2C8; format: in vitro ADME; details: single point at 10 μM; substrate amodiaquine
T2 construct: Eurofins (subcontracted)
T2 sequence (P10632 1-490): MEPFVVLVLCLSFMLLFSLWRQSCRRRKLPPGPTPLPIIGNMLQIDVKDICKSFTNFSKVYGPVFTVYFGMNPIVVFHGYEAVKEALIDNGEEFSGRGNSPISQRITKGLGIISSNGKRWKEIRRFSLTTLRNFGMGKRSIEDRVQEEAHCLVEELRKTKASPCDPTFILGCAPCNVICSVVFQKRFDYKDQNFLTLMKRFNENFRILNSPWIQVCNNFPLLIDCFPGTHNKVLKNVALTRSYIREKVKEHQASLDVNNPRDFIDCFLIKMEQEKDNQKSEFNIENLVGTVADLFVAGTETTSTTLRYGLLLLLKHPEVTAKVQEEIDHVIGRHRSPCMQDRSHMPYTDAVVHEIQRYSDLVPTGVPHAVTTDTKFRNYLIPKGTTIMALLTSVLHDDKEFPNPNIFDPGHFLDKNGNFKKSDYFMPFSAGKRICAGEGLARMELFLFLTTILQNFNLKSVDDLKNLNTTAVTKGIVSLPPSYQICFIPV

CYP2C9 = target: T3, CYP2C9 (Homo sapiens, UniProt P11712); assay: Cytochrome P450 inhibition CYP2C9; format: in vitro ADME; details: single point at 10 μM; substrate diclofenac
T3 construct: Eurofins (subcontracted)
T3 sequence (P11712 whole entry): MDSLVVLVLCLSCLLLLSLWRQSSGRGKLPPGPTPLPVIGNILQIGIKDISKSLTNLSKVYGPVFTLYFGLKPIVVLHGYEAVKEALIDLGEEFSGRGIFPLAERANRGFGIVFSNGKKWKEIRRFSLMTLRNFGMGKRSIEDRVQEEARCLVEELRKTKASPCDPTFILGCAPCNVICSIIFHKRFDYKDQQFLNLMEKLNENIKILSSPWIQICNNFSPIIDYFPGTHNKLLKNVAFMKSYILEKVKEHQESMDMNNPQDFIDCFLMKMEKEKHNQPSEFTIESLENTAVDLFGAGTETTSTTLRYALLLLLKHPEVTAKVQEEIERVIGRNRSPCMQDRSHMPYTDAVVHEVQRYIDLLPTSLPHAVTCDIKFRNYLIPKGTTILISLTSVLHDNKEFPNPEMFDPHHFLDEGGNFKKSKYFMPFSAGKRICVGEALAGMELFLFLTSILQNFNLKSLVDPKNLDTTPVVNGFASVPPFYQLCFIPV

CYP2C19 = target: T4, CYP2C19 (Homo sapiens, UniProt P33261); assay: Cytochrome P450 inhibition CYP2C19; format: in vitro ADME; details: single point at 10 μM; substrate omeprazole
T4 construct: Eurofins (subcontracted)
T4 sequence (P33261 whole entry): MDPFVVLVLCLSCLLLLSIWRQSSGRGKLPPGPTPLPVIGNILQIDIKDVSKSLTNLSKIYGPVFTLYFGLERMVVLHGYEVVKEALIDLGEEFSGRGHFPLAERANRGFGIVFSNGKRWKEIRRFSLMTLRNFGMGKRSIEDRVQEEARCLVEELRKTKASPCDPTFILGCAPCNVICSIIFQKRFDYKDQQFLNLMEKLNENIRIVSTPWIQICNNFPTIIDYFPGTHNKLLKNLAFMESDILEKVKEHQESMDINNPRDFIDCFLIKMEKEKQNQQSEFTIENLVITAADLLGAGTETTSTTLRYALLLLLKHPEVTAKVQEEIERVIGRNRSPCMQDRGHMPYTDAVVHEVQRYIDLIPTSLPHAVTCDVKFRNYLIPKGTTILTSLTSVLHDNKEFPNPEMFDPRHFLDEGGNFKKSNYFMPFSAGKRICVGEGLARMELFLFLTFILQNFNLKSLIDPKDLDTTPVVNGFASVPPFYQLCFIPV

CYP2D6 = target: T5, CYP2D6 (Homo sapiens, UniProt P10635); assay: Cytochrome P450 inhibition CYP2D6; format: in vitro ADME; details: single point at 10 μM; substrate dextrometorphan
T5 construct: Eurofins (subcontracted)
T5 sequence (P10635 whole entry): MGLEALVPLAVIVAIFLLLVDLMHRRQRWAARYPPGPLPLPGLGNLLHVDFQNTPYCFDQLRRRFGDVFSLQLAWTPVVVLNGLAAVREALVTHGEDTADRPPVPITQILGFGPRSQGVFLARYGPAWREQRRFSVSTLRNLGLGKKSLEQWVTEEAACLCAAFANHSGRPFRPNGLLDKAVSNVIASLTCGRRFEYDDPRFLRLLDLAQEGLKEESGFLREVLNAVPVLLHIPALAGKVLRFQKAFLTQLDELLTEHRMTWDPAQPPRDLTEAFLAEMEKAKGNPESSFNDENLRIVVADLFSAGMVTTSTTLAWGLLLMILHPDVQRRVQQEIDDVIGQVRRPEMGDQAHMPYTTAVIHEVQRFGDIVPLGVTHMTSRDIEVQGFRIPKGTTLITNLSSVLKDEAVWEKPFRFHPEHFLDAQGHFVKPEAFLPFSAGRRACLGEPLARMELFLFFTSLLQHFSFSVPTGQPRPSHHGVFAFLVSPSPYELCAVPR

CYP3A = assay: Cytochrome P450 inhibition CYP3A; format: in vitro ADME; details: human, single point at 10 μM
Cyp A [7] = target: T6, Cyp A (Homo sapiens, UniProt P62937)
T6 sequence (P62937 whole entry): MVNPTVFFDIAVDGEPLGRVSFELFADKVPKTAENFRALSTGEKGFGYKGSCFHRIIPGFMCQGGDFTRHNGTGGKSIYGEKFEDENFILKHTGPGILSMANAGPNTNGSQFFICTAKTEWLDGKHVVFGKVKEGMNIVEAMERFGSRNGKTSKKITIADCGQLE
Protocol: (§2) The cyclophilin binding properties of the compounds were assessed by Surface Plasmon Resonance (SPR) against Cyp A, B and D isoforms (Table 1, representative sensorgrams are shown in Figure 3A).[35]
Surface Plasmon Resonance (SPR)
(§3) SPR measurements were performed on a Biacore T200 instrument (Cytiva). Ni2+ -
(§4) nitrilotriacetic acid (NTA) sensor chips, 1-ethyl-3-(3-diaminopropyl) carbodiimide
(§5) hydrochloride (EDC) and N hydroxy succinimide (NHS) were purchased from Cytiva.
(§6) Immobilization and covalent stabilization of His-Cyps Pure His-cyclophilins on the NTA
(§7) sensor chip was performed essentially as described. [Wear et al., 2017, FEBS OpenBio], using
(§8) 200 nM concentrations of each protein, in Running Buffer (PBS, pH7.4; 0.05 % surfactant P20,
(§9) 2% v/v ethanol; 50 µM EDTA), at 30 µl min-1 with 60 second contact times on the activated
(§10) NTA surfaces. This gave signals of 1,921 RU for His-CypA, 1932 RU for His-CypB and 1,397
(§11) RU for His-CypD. Specific surface protein activity was assayed by passing saturating amounts
(§12) activity were obtained for His-CypA, -B and –D, respectively.
Kinetic titration experiments
(§13) Single cycle kinetic titration binding experiments were performed in triplicate at 25 °C. 3-fold
(§14) injected over the sensor surface, at 100 µl min-1 with a 90 s contact time and a 90 s dissociation
(§15) time. The sensor surface was regenerated between experiments by dissociating any formed
(§16) complex in running buffer for at least 1,200 seconds. The apparent on-rate (k+) and off-rate (k-
(§17) ) constants and the equilibrium dissociation constant (Kd) were calculated from reference

Cyp B [8] = target: T7, Cyp B (Homo sapiens, UniProt P23284); details: from SPR Kd
T7 sequence (P23284 32-216 limits assumed): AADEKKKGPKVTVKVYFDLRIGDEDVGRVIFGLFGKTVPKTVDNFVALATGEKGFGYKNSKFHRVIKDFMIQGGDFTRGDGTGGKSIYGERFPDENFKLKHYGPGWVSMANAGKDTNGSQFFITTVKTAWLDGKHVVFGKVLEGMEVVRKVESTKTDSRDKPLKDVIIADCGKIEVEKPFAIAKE
Protocol: as §2
Surface Plasmon Resonance (SPR)
as §3, §4, §5, §6, §7, §8, §9, §10, §11, §12
Kinetic titration experiments
as §13, §14, §15, §16, §17

Cyp D [9] = target: T8, Cyp D (Homo sapiens, UniProt P30405)
T8 sequence (P30405 42-207): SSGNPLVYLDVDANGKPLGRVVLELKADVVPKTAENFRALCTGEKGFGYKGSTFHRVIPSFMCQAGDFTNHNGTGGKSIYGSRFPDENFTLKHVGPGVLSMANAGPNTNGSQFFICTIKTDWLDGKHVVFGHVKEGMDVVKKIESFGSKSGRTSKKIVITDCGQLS
Protocol: as §2
Surface Plasmon Resonance (SPR)
as §3, §4, §5, §6, §7, §8, §9, §10, §11, §12
Kinetic titration experiments
as §13, §14, §15, §16, §17

Cyp B [10] = target: T7, Cyp B; assay: biochemical
Protocol: as §2
Surface Plasmon Resonance (SPR)
as §3, §4, §5, §6, §7, §8, §9, §10, §11, §12
Kinetic titration experiments
as §13, §14, §15, §16, §17

Caco-2 permeability = details: human, Caco-2
Caco-2 = Caco-2 permeability; details: apparent permeability A-B
[11] = test system: Salmonella typhimurium TA98; assay: Ames fluctuation test TA98
Protocol: (§18) Bacterial cytotoxicity tests were carried out using Reverted Salmonella typhimurium strains
(§19) (TA98, TA100, TA1535, TA1537) that were incubated 96 hours at 37 Celsius. The results for
(§20) cytotoxicity are expressed as percent of control growth (OD650). Compounds with growth of
(§21) less than 60 % of control are flagged and considered cytotoxic.
(§22) Compounds were incubated for 96 hours at 37°C at 4 different concentrations (5 mM, 10 mM,
(§23) the absence and presence of rat liver S9 microsomes.
(§24) to the reversion of the histidine mutation (as judged by the ratio of OD430/OD570 being greater
(§25) than 1.0) are counted and recorded as positive counts. The significance of the positive counts
(§26) between the treatment (in the presence of test compound) and the control (in the absence of test
(§27) compound) are calculated using the one-tailed Fisher's exact test. Three significance levels are
(§28) Very strong positive, if p < 0.001, denoted as "+++"
(§29) Control experiments were carried out with 2-aminoanthracene (10 mM), 9-aminoacridine (10
(§30) mM), quercetin (30 mM) and streptozocitin (2.5 mM).

[12] = test system: Salmonella typhimurium TA100; assay: Ames fluctuation test TA100
Protocol: as §18, §19, §20, §21, §22, §23, §24, §25, §26, §27, §28, §29, §30

[13] = test system: Salmonella typhimurium TA1535; assay: Ames fluctuation test TA1535
Protocol: as §18, §19, §20, §21, §22, §23, §24, §25, §26, §27, §28, §29, §30

[14] = test system: Salmonella typhimurium TA1537; assay: Ames fluctuation test TA1537
Protocol: as §18, §19, §20, §21, §22, §23, §24, §25, §26, §27, §28, §29, §30

[15] = Aqueous kinetic solubility, shake-flask
Protocol: (§31) Kinetic solubility measurements were carried out using a shake-flask technique. Compounds
(§32) were incubated for 24 hours at room temperature. Aqueous solubility (μM) was determined by
(§33) comparing the peak area of the principal peak in a calibration standard (200 μM) containing
(§34) organic solvent (methanol/water, 60/40, v/v) with the peak area of the corresponding peak in a
(§35) buffer sample. In addition, chromatographic purity (%) was defined as the peak area of the
(§36) principal peak relative to the total integrated peak area in the HPLC chromatogram of the
(§37) calibration standard. A chromatogram of the calibration standard of each test compound, along
(§38) with a UV/VIS spectrum with labeled absorbance maxima, was generated.
(§39) These were measured using a shake-flask technique. Compounds were incubated for 60 min at
(§40) room temperature. The total amount of compound was determined as the peak area of the
(§41) principal peak in a calibration standard (100 μM) containing organic solvent (methanol/water,
(§42) 60/40, v/v). The amount of compound in buffer was determined as the combined, volume
(§43) corrected, and weighted areas of the corresponding peaks in the aqueous phases of three
(§44) organic-aqueous samples of different composition. An automated weighting system was used
(§45) to ensure the preferred use of raw data from those samples with well quantifiable peak signals.
(§46) The amount of compound in organic was calculated by subtraction. Subsequently, Log D was
(§47) calculated as the Log10 of the amount of compound in the organic phase divided by the amount
of compound in the aqueous phase.

[16] = Partition coefficient (Log D), shake-flask; details: octanol/water
Protocol: as §31, §32, §33, §34, §35, §36, §37, §38, §39, §40, §41, §42, §43, §44, §45, §46, §47
of compound in the aqueous phase.

[17] = test system: Salmonella typhimurium strains (TA98, TA100, TA1535, TA1537); assay: Ames tests, all strains (summary in words); details: in absence and presence of liver S9 fractions
Protocol: as §18, §19, §20, §21, §22, §23, §24, §25, §26, §27, §28, §29, §30

Cyp A [18] = target: T6, Cyp A; assay: Isothermal titration calorimetry (ITC), Cyp A; format: binding; design: full-length human CypA (M1 – E165); made in house; host or cells: Escherichia coli OverExpress C41 BL21(DE3); details: 25 °C
Protocol: All ITC experiments were carried out at 25°C on a MicroCal Auto iTC200 (GE Healthcare)
solutions were heated to 65°C and/or sonicated prior to the experiment. Each experiment
consisted of an initial injection of 0.4 μL followed by repeated 2 μL injections to achieve
saturation. In all cases the first injection
was omitted from the data processing. All data were analysed using the MicroCal PEAQ-ITC
Analysis software. A fixed stoichiometry to 1 was applied during the non-linear regression of
the raw data for fitting the data.

[19] = design: method as in PMID 38324483; details: phase III trial; cited from earlier work
Cyp A [20] = target: T6, Cyp A; assay: SPR kinetic titration, Cyp A
Protocol: as §2
Surface Plasmon Resonance (SPR)
as §3, §4, §5, §6, §7, §8, §9, §10, §11, §12
Kinetic titration experiments
as §13, §14, §15, §16, §17

[21] = test system: permeabilised human hepatocyte (HepG2) cells; assay: Calcium Retention Capacity assay; format: cell-based
Protocol: Calcium Retention Capacity Assay
The compounds were prepared as a 10 mM stock solution in 100% DMSO. Subsequent dilutions were made in 100% DMSO and then in assay buffer to 10-fold the final concentration.
HepG2 cells were permeabilized with 100 µM digitonin for 10 min in ice cold buffer containing 1mM EGTA. Following two wash steps to remove the digitonin, the cells were plated into 96 well black and clear plates at 106 cell per well in a 180 µL assay buffer containing 0.5 µM Calcium Green 5N. Compounds dilution were prepared in DMSO to 1000 fold the final concentration, diluted 1:100 in assay buffer and added to the assay as 20 µL per well. The assay buffer contained 5 mM glutamate and 2.5 mM malate. The cell plate was immediately run on the FLIPR Tetratm which added 5 µL of 200 µM (5 µM) calcium chloride every 5 minutes whilst reading the plate every 3 seconds. The area under the curve (AUC) of the raw trace was calculated at each concentration. AUC values were plotted against concentration and EC50 values calculated. Experiments were repeated three times and the EC50 value was determined from a curve fitted to the averaged replicates.

physchem [22] = assay: physchem
Protocol: as §31, §32, §33, §34, §35, §36, §37, §38, §39, §40, §41, §42, §43, §44, §45, §46, §47
of compound in the aqueous phase.

physchem [23] = assay: physchem; remark: listed apart in the source
Protocol: as §31, §32, §33, §34, §35, §36, §37, §38, §39, §40, §41, §42, §43, §44, §45, §46, §47
of compound in the aqueous phase.

in vitro = details: human, Caco-2
Cyp D [24] = target: T8, Cyp D; assay: SPR kinetic titration, Cyp D
Protocol: as §2
Surface Plasmon Resonance (SPR)
as §3, §4, §5, §6, §7, §8, §9, §10, §11, §12
Kinetic titration experiments
as §13, §14, §15, §16, §17

[25] = Hepatocyte, 48 h, 95% CI [lower limit, upper limit], read-out: EC50 steatosis
[26] = Kd Cyp B, SPR-derived dissociation constant, 25 °C

CSc1ccccc1[C@H]1CCCN1C(=O)CNC(=O)N(Cc1ccc(N)c(Cl)c1)Cc1nnn(C)n1 [Compound 11, 1-[(4-Amino-3-chloro-phenyl)methyl]-1-[(2-methyltetrazol-5-yl)methyl]-3-[2-oxo-2-[(2R)-2-(2-methylsulfanylphenyl)pyrrolidin-1-yl]ethyl]urea]
effect on hepatocyte overall lipid levels and lipid droplet size (in words) (iPSC-derived hepatocytes): significant reduction | EC50 (iPSC-derived hepatocytes; [25]): ~300 nM | EC50 (iPSC-derived hepatocytes; Hepatocyte, 48 h, read-out: EC50 MASH assay): 258 nM | microsomal CLint [1]: 352 µL/min/mg | half-life ([1]; read-out: Rat Liver microsomes t1/2): 20 min | microsomal CLint [2]: 558 µL/min/mg | half-life ([2]; read-out: Human Liver microsomes t1/2): 12 min | hepatocyte CLint ([3]; hepatocytes): 13 µL/min/1e6 cells | half-life ([3]; hepatocytes, read-out: Rat Hepatocytes t1/2): 78 min | hepatocyte CLint ([4]; hepatocytes): 13 µL/min/1e6 cells | half-life ([4]; hepatocytes, read-out: Human Hepatocytes t1/2): 74 min | recovery at 10 μM [5]: 99% | fraction unbound at 10 µM ([5]; read-out: Rat PPB free): 0.11 | recovery [6]: 88% | fraction unbound at 10 µM ([6]; read-out: Human PPB free): 0.02 | inhibition at 10 µM (CYP1A): 25% | CYP2B6 bupropion % inhibition (CYP2B6): 11% | CYP2C8 amodiaquine % inhibition (CYP2C8): 71% | CYP2C9 diclofenac % inhibition (CYP2C9): 45% | CYP2C19 omeprazole % inhibition (CYP2C19): 72% | CYP2D6 dextrometor. % inhibition (CYP2D6): 18% | inhibition at 10 µM (CYP3A; probe midazolam, substrate midazolam, read-out: CYP3A midazolam % inhibition): 73% | inhibition at 10 µM (CYP3A; probe testoterone, substrate testoterone, read-out: CYP3A testoterone % inhibition): 59% | Kd (Cyp A [7]): 110 ± 50 nM | greater affinity for Cyp B compared to 12 (Cyp B [8]): ca. 7 fold | selectivity for Cyp B over Cyp A (Cyp B [8]): 10 fold | selectivity for Cyp B over Cyp A and Cyp D (Cyp B [8]): 10–20 fold | Kd (Cyp D [9]): 180 ± 100 nM | Kd (Cyp B [10]; [26]): 12 ± 3 nM | efflux ratio (Caco-2 permeability): 2.8 | Caco-2 A-B (Caco-2): 5 10^–6 cm/s | Ames fluctuation test TA98 +S9 ([11]; with rat liver S9): neg/neg | Ames fluctuation test TA98 –S9 ([11]; without S9): neg/neg | Ames fluctuation test TA100 +S9 ([12]; with rat liver S9): neg/neg | Ames fluctuation test TA100 –S9 ([12]; without S9): neg/neg | Ames fluctuation test TA1535 +S9 ([13]; with rat liver S9): neg/neg | Ames fluctuation test TA1535 –S9 ([13]; without S9): neg/neg | Ames fluctuation test TA1537 +S9 ([14]; with rat liver S9): neg/neg | Ames fluctuation test TA1537 –S9 ([14]; without S9): neg/neg | solubility at 24 h ([15]; PBS, pH 7.4): > 200 µM | solubility at 24 h ([15]; simulated gastric fluid): > 200 µM | solubility at 24 h ([15]; simulated intestinal fluid): > 200 µM | logD at 1 h, 100 µM [16]: 1.53 | Ames result in all strains tested [17]: negative | DG (ITC) (Cyp A [18]; ITC titration to Cyp A): -9.7 ± 0.1 kcal/mol | DH (ITC) (Cyp A [18]; ITC titration to Cyp A): -16.4 ± 0.1 kcal/mol | TDS (ITC) (Cyp A [18]; ITC titration to Cyp A): -6.7 kcal/mol | Kd (Cyp A [18]; ITC, pH 6.5, 2% DMSO, read-out: Kd Cyp A from ITC): 82 ± 6 nM

CC(C)c1cc(Oc2c(Cl)cc(-n3nc(C#N)c(=O)[nH]c3=O)cc2Cl)n[nH]c1=O [Resmetirom, reference compound]
EC50 (iPSC-derived hepatocytes; 95% CI [lower limit, upper limit], listed as Res, read-out: EC50 steatosis): 261 nM | EC50 (iPSC-derived hepatocytes; [25]): ~300 nM | patients with improved liver pathology [19]: 25–30%

CSc1ccccc1[C@H]1CCCN1C(=O)CN1C(=O)CN(Cc2cc(F)c(N)c(F)c2)C1=O [Compound 15, 1-[(4-Amino-3,5-difluoro-phenyl)methyl]-3-[2-oxo-2-[(2R)-2-(2-methylsulfanylphenyl)pyrrolidine-1-yl]ethyl]imidazolidine-2,4-dione]
Kd (Cyp D [9]): 6300 ± 1600 nM | Kd (Cyp B [10]): 3800 ± 1300 nM | Kd (Cyp A [20]): 6700 ± 2600 nM

CSc1ccccc1[C@H]1CCCN1C(=O)CNC(=O)N(Cc1ccc2c(c1)[C@H]1C[C@@H](N2)[C@H](O)CO1)Cc1nnn(C)n1 [Compound 3, 1-[[(1S,9R,10S)-10-Hydroxy-12-oxa-8-azatricyclo[7.3.1.0,^27]trideca-2,4,6-trien-4-yl]methyl]-3-[2-[(2R)-2-(2-methylsulfanylphenyl)pyrrolidin-1-yl]-2-oxo-ethyl]-1-[(2-methyltetrazol-5-yl)methyl]urea]
EC50 ([21]; Homo sapiens, HepG2, read-out: EC50 CRC assay): 244 nM | greater efficacy over CsA in the calcium retention assay ([21]; from EC50 values): 2 fold | half-life [1]: 51 min | microsomal CLint [1]: 137 µL/min/mg | half-life [2]: 41 min | microsomal CLint [2]: 169 µL/min/mg | half-life ([3]; cryopreserved hepatocytes): > 120 min | hepatocyte CLint ([3]; cryopreserved hepatocytes): < 8 µL/min/1e6 cells | half-life ([4]; cryopreserved hepatocytes): > 120 min | hepatocyte CLint ([4]; cryopreserved hepatocytes): < 8 µL/min/1e6 cells | selectivity for Cyp B over Cyp A (Cyp B [8]): 3 fold | logD (physchem [22]): 0.66 | solubility (physchem [23]): 54 µM (≈ 32 µg/mL) | solubility (physchem [23]; pH 7.4): > 200 µM | Papp A→B (in vitro): 0.03 ×10⁻⁶ cm/s | efflux ratio (in vitro): 37 | Kd (Cyp B [10]; [26]): 2 ± 1 nM | Kd (Cyp A [20]): 6 ± 2 nM | Kd (Cyp D [24]): 8 ± 3 nM
